Reference: article PMC11995724, “Antibiotic target discovery by integrated phenotypic and activity-based profiling of electrophilic fragments” (Cell chemical biology, 2025)

Assay: in vitro
Conditions: human, hek293t cells

| Structure (SMILES) | viability at 48 h, 25 µM [%] |
| --- | --- |
| C=CC(=O)NC[C@@H]1C=C[C@H]2C[C@@H]1CO2 (racemic) [1-I03, rac-N-{[(1R,2S,5S)-6-oxabicyclo[3.2.1]oct-3-en-2-yl]methyl}prop-2-enamide] | 78.1 |
| C=CC(=O)N(Cc1cc2cccc(OC)c2o1)[C@@H]1C[C@H]2CC[C@@H]1O2 (racemic) [1-J13, rac-N-[(7-methoxy-1-benzofuran-2-yl)methyl]-N-[(1R,2S,4S)-7-oxabicyclo[2.2.1]heptan-2-yl]prop-2-enamide] | 172 |
| C=CC(=O)N(C)CC(=O)N1CCC[C@H](NC(=O)C(F)(F)F)[C@@H]1C (racemic) [2-A20, rac-N-methyl-N-{2-[(2R,3R)-2-methyl-3-(2,2,2-trifluoroacetamido)piperidin-1-yl]-2-oxoethyl}prop-2-enamide] | 96 |
| C=CC(=O)N1CCC(C(=O)N[C@H]2CCO[C@H](c3ccccn3)C2)CC1 (racemic) [2-G15, rac-1-(prop-2-enoyl)-N-[(2R,4R)-2-(pyridin-2-yl)oxan-4-yl]piperidine-4-carboxamide] | 66.9 |
| C=CC(=O)N[C@H]1CCCC[C@H]1c1ccnn1C (racemic) [2-G18, rac-N-[(1R,2S)-2-(1-methyl-1H-pyrazol-5-yl)cyclohexyl]prop-2-enamide] | 103 |
| C=CC(=O)N1CCC(C(=O)N[C@H]2CCO[C@@H]2c2cccnc2)CC1 (racemic) [2-G20, rac-1-(prop-2-enoyl)-N-[(2R,3S)-2-(pyridin-3-yl)oxolan-3-yl]piperidine-4-carboxamide] | 92.2 |
| C=CC(=O)N1CCC(C(=O)N[C@H]2CC[C@@H](CC#N)C2)CC1 (racemic) [2-G21, rac-N-[(1R,3S)-3-(cyanomethyl)cyclopentyl]-1-(prop-2-enoyl)piperidine-4-carboxamide] | 71.9 |
| C=CC(=O)N1CCC(C(=O)N[C@H]2CCCCCC[C@H]2C(=O)OC)CC1 (racemic) [2-H06, rac-methyl (1R,2S)-2-[1-(prop-2-enoyl)piperidine-4-amido]cyclooctane-1-carboxylate] | 94.4 |
| C=CC(=O)N1CCC(C(=O)N[C@@H]2CC[C@H](O)C2)(c2ccccc2)CC1 (racemic) [2-H16, rac-N-[(1R,3S)-3-hydroxycyclopentyl]-4-phenyl-1-(prop-2-enoyl)piperidine-4-carboxamide] | 59.9 |
| C=CC(=O)N1C[C@H](NC(C)=O)[C@@H](c2ccnn2C)C1 (racemic) [2-M16, rac-N-[(3R,4S)-4-(1-methyl-1H-pyrazol-5-yl)-1-(prop-2-enoyl)pyrrolidin-3-yl]acetamide] | 96 |
| C=CC(=O)Nc1ccc(C(=O)N[C@H]2COC[C@@H]2OC)cc1 (racemic) [3-C08, rac-N-[(3R,4S)-4-methoxyoxolan-3-yl]-4-(prop-2-enamido)benzamide] | 85.1 |
| C=CC(=O)N(C)[C@H]1CS(=O)(=O)C[C@@H]1O (racemic) [3-C15, rac-N-[(3R,4R)-4-hydroxy-1,1-dioxo-1lambda6-thiolan-3-yl]-N-methylprop-2-enamide] | 46 |
| C=CC(=O)N1CCC(C(=O)N[C@H]2CC[C@@H]2O)(c2ccccc2)CC1 (racemic) [3-G08, rac-N-[(1R,2R)-2-hydroxycyclobutyl]-4-phenyl-1-(prop-2-enoyl)piperidine-4-carboxamide] | 104 |
| C=CC(=O)N[C@H]1CCO[C@@H]1c1ccnn1C(C)C (racemic) [3-K05, rac-N-[(2R,3R)-2-[1-(propan-2-yl)-1H-pyrazol-5-yl]oxolan-3-yl]prop-2-enamide] | 52.7 |
| COCc1nnc([C@]23CC[C@H]2CCN3C(=O)C(C)Cl)o1 (mixture of isomers) [5-H15, rac-2-chloro-1-[(1R,5R)-1-[5-(methoxymethyl)-1,3,4-oxadiazol-2-yl]-2-azabicyclo[3.2.0]heptan-2-yl]propan-1-one] | 108 |
| CC(C)N1C(=O)C[C@H](NC(=O)CCl)[C@H]1c1ccc(Cl)c(F)c1 (racemic) [5-I11, rac-2-chloro-N-[(2R,3S)-2-(4-chloro-3-fluorophenyl)-5-oxo-1-(propan-2-yl)pyrrolidin-3-yl]acetamide] | 0.807 |
| CC(Cl)C(=O)N[C@H]1CCC(=O)N[C@@H]1c1ccnn1C (mixture of isomers) [6-B14, rac-2-chloro-N-[(2R,3R)-2-(1-methyl-1H-pyrazol-5-yl)-6-oxopiperidin-3-yl]propanamide] | 92.4 |
| CCN1C(=O)CC[C@H](CNC(=O)C(C)Cl)[C@H]1c1cnn(C)c1 (mixture of isomers) [6-L13, rac-2-chloro-N-{[(2R,3S)-1-ethyl-2-(1-methyl-1H-pyrazol-4-yl)-6-oxopiperidin-3-yl]methyl}propanamide] | 100 |
| CC(Cl)C(=O)NC[C@H]1CCCN(C2CC2)[C@@H]1c1ccnn1C (mixture of isomers) [6-P20, rac-2-chloro-N-{[(2R,3S)-1-cyclopropyl-2-(1-methyl-1H-pyrazol-5-yl)piperidin-3-yl]methyl}propanamide] | 101 |
| CC(Cl)C(=O)N[C@H]1CCO[C@@H]1c1nccn1-c1ccccc1 (mixture of isomers) [7-A12, rac-2-chloro-N-[(2R,3R)-2-(1-phenyl-1H-imidazol-2-yl)oxolan-3-yl]propanamide] | 93.1 |
| CC(Cl)C(=O)N1C[C@@H]2CCC[C@@]2(c2nc(-c3cnccn3)no2)C1 (mixture of isomers) [7-C03, rac-1-[(3aR,6aR)-3a-[3-(pyrazin-2-yl)-1,2,4-oxadiazol-5-yl]-octahydrocyclopenta[c]pyrrol-2-yl]-2-chloropropan-1-one] | 113 |
| CC(Cl)C(=O)N[C@H]1C[C@@H]1c1cnn(-c2ccccc2)c1 (mixture of isomers) [7-M08, rac-2-chloro-N-[(1R,2S)-2-(1-phenyl-1H-pyrazol-4-yl)cyclopropyl]propanamide] | 76.7 |
| CC(Cl)C(=O)N[C@H]1CN(Cc2ccccc2)C[C@@H]1c1ccccc1 (mixture of isomers) [7-N09, rac-N-[(3R,4S)-1-benzyl-4-phenylpyrrolidin-3-yl]-2-chloropropanamide] | 88.2 |

| Structure (SMILES) | viability at 48 h, 25 µM [%] |
| --- | --- |
| COC(=O)[C@H]1[C@@H](C(=O)CCl)C1(C)C (racemic) [10-A11, rac-methyl (1R,3S)-3-(2-chloroacetyl)-2,2-dimethylcyclopropane-1-carboxylate] | 74.8 |
| CC(C)(C)OC(=O)[C@H]1C[C@@H]1C(=O)CCl (racemic) [10-C13, rac-tert-butyl (1R,2R)-2-(2-chloroacetyl)cyclopropane-1-carboxylate] | 1.62 |
| C=CC(=O)NCC1CCN(S(=O)(=O)C(F)(F)F)CC1 [1-A03, N-[(1-trifluoromethanesulfonylpiperidin-4-yl)methyl]prop-2-enamide] | 83.3 |
| C=CC(=O)Nc1ccoc1C(=O)c1ccc(C)cc1 [1-A04, N-[2-(4-methylbenzoyl)furan-3-yl]prop-2-enamide] | 0.123 |
| C=CC(=O)NC1(c2ncon2)CC1 [1-A05, N-[1-(1,2,4-oxadiazol-3-yl)cyclopropyl]prop-2-enamide] | 68.7 |
| C=CC(=O)NCC1CCC2(CCCC2)O1 (stereo not shown) [1-A06, N-({1-oxaspiro[4.4]nonan-2-yl}methyl)prop-2-enamide] | 106 |
| C=CC(=O)NCC1CCN(C2CC2)CC1 [1-A07, N-[(1-cyclopropylpiperidin-4-yl)methyl]prop-2-enamide] | 80.2 |
| C=CC(=O)NC1CCCN(c2cc(N3CCOCC3)ncn2)C1 (stereo not shown) [1-A08, N-{1-[6-(morpholin-4-yl)pyrimidin-4-yl]piperidin-3-yl}prop-2-enamide] | 103 |
| C=CC(=O)N1CC(C(N)=O)Oc2ccccc21 (stereo not shown) [1-A09, 4-(prop-2-enoyl)-3,4-dihydro-2H-1,4-benzoxazine-2-carboxamide] | 24.7 |
| C=CC(=O)N(CC)c1cccc(C)c1 [1-A10, N-ethyl-N-(3-methylphenyl)prop-2-enamide] | 76.6 |
| C=CC(=O)Nc1cnn(CC(F)(F)F)c1 [1-A11, N-[1-(2,2,2-trifluoroethyl)-1H-pyrazol-4-yl]prop-2-enamide] | 91.8 |
| C=CC(=O)Nc1cc(C(=O)O)ccc1O [1-A12, 4-hydroxy-3-(prop-2-enamido)benzoic acid] | 75.1 |
| C=CC(=O)NCCc1csc(-c2ccccc2)n1 [1-A13, N-[2-(2-phenyl-1,3-thiazol-4-yl)ethyl]prop-2-enamide] | 88.5 |
| C=CC(=O)NC1CCc2ccccc21 (stereo not shown) [1-A14, N-(2,3-dihydro-1H-inden-1-yl)prop-2-enamide] | 107 |
| C=CC(=O)Nc1cc(S(=O)(=O)N2CCCCCC2)ccc1OC [1-A15, N-[5-(azepane-1-sulfonyl)-2-methoxyphenyl]prop-2-enamide] | 1.58 |
| C=CC(=O)Nc1cccc(-c2nnnn2C(C)C)c1 [1-A16, N-{3-[1-(propan-2-yl)-1H-1,2,3,4-tetrazol-5-yl]phenyl}prop-2-enamide] | 98.3 |
| C=CC(=O)NCC1(c2ccccc2Cl)CCCCC1 [1-A17, N-{[1-(2-chlorophenyl)cyclohexyl]methyl}prop-2-enamide] | 64.2 |
| C=CC(=O)Nc1ccccc1CCC(N)=O [1-A18, N-[2-(2-carbamoylethyl)phenyl]prop-2-enamide] | 125 |
| C=CC(=O)Nc1ccccc1CCSC [1-A19, N-{2-[2-(methylsulfanyl)ethyl]phenyl}prop-2-enamide] | 93.5 |
| C=CC(=O)NC(C)(Cn1cccn1)C(N)=O (stereo not shown) [1-A20, N-{1-carbamoyl-1-[(1H-pyrazol-1-yl)methyl]ethyl}prop-2-enamide] | 113 |
| C=CC(=O)NCc1cc(-c2ccco2)on1 [1-A21, N-{[5-(furan-2-yl)-1,2-oxazol-3-yl]methyl}prop-2-enamide] | 166 |
| C=CC(=O)N1CCCn2cccc2C12CCOCC2 [1-A22, 1-{2',3',4',5'-tetrahydrospiro[oxane-4,1'-pyrrolo[1,2-a][1,4]diazepin]-2'-yl}prop-2-en-1-one] | 109 |
| C=CC(=O)NC1CCCN(C(=O)CCC(F)(F)F)C1 (stereo not shown) [1-B03, N-[1-(4,4,4-trifluorobutanoyl)piperidin-3-yl]prop-2-enamide] | 108 |
